The values that follow come from patent publication US20200030355A1, “COMBINATION THERAPY FOR TREATING CANCER” (Epizyme, Inc., priority 2014, published 2020).

For one experiment, the system named is MOLM-13 cells. The experiment in a line: EPZ-5676 300 nM 7-day pre-treatment, then second compound 72 hours, ATPLite, IC50 shift (Example 6). It is filed as cell-based, human. Conditions: 300 nM EPZ-5676 or DMSO 7-day pre-treatment, then 2nd compound 72 hours, Synergy = IC50 of 2nd compound decreased by 2-fold or more vs DMSO control. As for the experimental part: (§1) Cells were then equilibrated in incubators for 24 hours before treatment with a second compound. Treated assay plates were incubated with a second compound for 72 hours. After this time, plates were developed for endpoint analysis using ATPLite to measure ATP content, which is used as an indicator of cell viability.
(§2) “N/D” means that IC50 of the second compound could not be determined for both conditions.

For the next experiment, the system named is SKM-1 cells. The experiment is described as above. Type of experiment: cell-based, human. To be noted: SKM-1 cells; 300 nM EPZ-5676 or DMSO 7-day pre-treatment, then 2nd compound 72 hours, ATPLite; Synergy = IC50 of 2nd compound decreased by 2-fold or more vs DMSO control. As for the experimental part: as §1, §2
In general terms: In ATP-based viability assays light output follows the ATP content of the culture.

Consider `C=C(c1ccc(C(=O)O)cc1)c1cc2c(cc1C)C(C)(C)CCC2(C)C` [Bexarotene], for which, in the experiment on MOLM-13 cells, the “MOLM-13 (summary of combination study: EPZ-5676 + 2nd compound)” value is “Synergy (considered synergistic if the IC50 value of the second compound decreased by 2-fold or more when EPZ-5676 was added as compared to the DMSO control)”. The “SKM-1 (summary of combination study: EPZ-5676 + 2nd compound)” value with SKM-1 cells is on record as “Synergy (considered synergistic if the IC50 value of the second compound decreased by 2-fold or more when EPZ-5676 was added as compared to the DMSO control)”.

Turning to `O=C(/C=C/c1ccc(O)c(O)c1)OCCc1ccccc1` [CAPE], in the experiment on MOLM-13 cells, the “MOLM-13 (summary of combination study: EPZ-5676 + 2nd compound)” value is on record as “Synergy (considered synergistic if the IC50 value of the second compound decreased by 2-fold or more when EPZ-5676 was added as compared to the DMSO control)”. For the same molecule, the “SKM-1 (summary of combination study: EPZ-5676 + 2nd compound)” value in the experiment with SKM-1 cells is reported as “Synergy (considered synergistic if the IC50 value of the second compound decreased by 2-fold or more when EPZ-5676 was added as compared to the DMSO control)”.

With `Cc1sc2c(c1C)C(c1ccc(Cl)cc1)=N[C@@H](CC(N)=O)c1nnc(C)n1-2` [CPI-203], the “MOLM-13 (summary of combination study: EPZ-5676 + 2nd compound)” value in the experiment with MOLM-13 cells was “Synergy (considered synergistic if the IC50 value of the second compound decreased by 2-fold or more when EPZ-5676 was added as compared to the DMSO control)”. Further, the “SKM-1 (summary of combination study: EPZ-5676 + 2nd compound)” value in the experiment with SKM-1 cells was “Synergy (considered synergistic if the IC50 value of the second compound decreased by 2-fold or more when EPZ-5676 was added as compared to the DMSO control)”.

For `COCc1c(C(C)C)nc(C(C)C)c(/C=C/[C@@H](O)C[C@@H](O)CC(=O)O)c1-c1ccc(F)cc1` [Cerivastatin Sodium], the “MOLM-13 (summary of combination study: EPZ-5676 + 2nd compound)” value in the experiment with MOLM-13 cells was “Synergy (considered synergistic if the IC50 value of the second compound decreased by 2-fold or more when EPZ-5676 was added as compared to the DMSO control)”. Besides, the “SKM-1 (summary of combination study: EPZ-5676 + 2nd compound)” value in the experiment with SKM-1 cells is “Synergy (considered synergistic if the IC50 value of the second compound decreased by 2-fold or more when EPZ-5676 was added as compared to the DMSO control)”.

Consider `CS(=O)(=O)N1CCN(Cc2cc3nc(-c4cccc5[nH]ncc45)nc(N4CCOCC4)c3s2)CC1` [GDC-0941], for which the “MOLM-13 (summary of combination study: EPZ-5676 + 2nd compound)” value with MOLM-13 cells is on record as “Synergy (considered synergistic if the IC50 value of the second compound decreased by 2-fold or more when EPZ-5676 was added as compared to the DMSO control)”. Also, the “SKM-1 (summary of combination study: EPZ-5676 + 2nd compound)” value in the experiment with SKM-1 cells is “Synergy (considered synergistic if the IC50 value of the second compound decreased by 2-fold or more when EPZ-5676 was added as compared to the DMSO control)”.

As for `COc1ccc(-c2ccc3c(N4CCOCC4)nc(N4C[C@@H](C)O[C@@H](C)C4)nc3n2)cc1CO` [KU 0063794], the “MOLM-13 (summary of combination study: EPZ-5676 + 2nd compound)” value with MOLM-13 cells is given as “Synergy (considered synergistic if the IC50 value of the second compound decreased by 2-fold or more when EPZ-5676 was added as compared to the DMSO control)”. In addition, in the experiment on SKM-1 cells, the “SKM-1 (summary of combination study: EPZ-5676 + 2nd compound)” value is “Synergy (considered synergistic if the IC50 value of the second compound decreased by 2-fold or more when EPZ-5676 was added as compared to the DMSO control)”.

For the molecule `O=C(c1cn(Cc2cncn2Cc2ccc(Br)cc2)cc1-c1cccc2ccccc12)N1CCOCC1` [LB42708], in the experiment with MOLM-13 cells, the “MOLM-13 (summary of combination study: EPZ-5676 + 2nd compound)” value was “Synergy (considered synergistic if the IC50 value of the second compound decreased by 2-fold or more when EPZ-5676 was added as compared to the DMSO control)”. In addition, the “SKM-1 (summary of combination study: EPZ-5676 + 2nd compound)” value in the experiment with SKM-1 cells is “Synergy (considered synergistic if the IC50 value of the second compound decreased by 2-fold or more when EPZ-5676 was added as compared to the DMSO control)”.

`CN(C)C(=O)c1cc2cnc(Nc3ccc(N4CCNCC4)cn3)nc2n1C1CCCC1` [LEE011]: in the experiment on MOLM-13 cells, the “MOLM-13 (summary of combination study: EPZ-5676 + 2nd compound)” value is listed as “Synergy (considered synergistic if the IC50 value of the second compound decreased by 2-fold or more when EPZ-5676 was added as compared to the DMSO control)”. For the same molecule, the “SKM-1 (summary of combination study: EPZ-5676 + 2nd compound)” value in the experiment on SKM-1 cells is “Synergy (considered synergistic if the IC50 value of the second compound decreased by 2-fold or more when EPZ-5676 was added as compared to the DMSO control)”.

On to `Cc1sc2c(c1C)C(c1ccc(Cl)cc1)=N[C@@H](CC(=O)Nc1ccc(O)cc1)c1nnc(C)n1-2` [OTX015], for which the “MOLM-13 (summary of combination study: EPZ-5676 + 2nd compound)” value in the experiment with MOLM-13 cells was “Synergy (considered synergistic if the IC50 value of the second compound decreased by 2-fold or more when EPZ-5676 was added as compared to the DMSO control)”. Besides, the “SKM-1 (summary of combination study: EPZ-5676 + 2nd compound)” value in the experiment on SKM-1 cells is listed as “Synergy (considered synergistic if the IC50 value of the second compound decreased by 2-fold or more when EPZ-5676 was added as compared to the DMSO control)”.

For the molecule `CC1=C(/C=C/C(C)=C/C=C/C(C)=C/C(=O)O)C(C)(C)CCC1` [Tretinoin], the “MOLM-13 (summary of combination study: EPZ-5676 + 2nd compound)” value in the experiment with MOLM-13 cells is “Synergy (considered synergistic if the IC50 value of the second compound decreased by 2-fold or more when EPZ-5676 was added as compared to the DMSO control)”. For the same molecule, in the experiment on SKM-1 cells, the “SKM-1 (summary of combination study: EPZ-5676 + 2nd compound)” value is given as “Synergy (considered synergistic if the IC50 value of the second compound decreased by 2-fold or more when EPZ-5676 was added as compared to the DMSO control)”.

Turning to `COc1cc2c(NC3CCN(C4CCCCC4)CC3)nc(N3CCCN(C(C)C)CC3)nc2cc1OCCCN1CCCCC1` [UNC 0646], the “MOLM-13 (summary of combination study: EPZ-5676 + 2nd compound)” value in the experiment on MOLM-13 cells was “Synergy (considered synergistic if the IC50 value of the second compound decreased by 2-fold or more when EPZ-5676 was added as compared to the DMSO control)”. For the same molecule, the “SKM-1 (summary of combination study: EPZ-5676 + 2nd compound)” value in the experiment on SKM-1 cells is recorded as “Synergy (considered synergistic if the IC50 value of the second compound decreased by 2-fold or more when EPZ-5676 was added as compared to the DMSO control)”.
